Measurements published in patent US10160762B2, “6-alkyl dihydropyrazolopyrimidinone compounds as PDE2 inhibitors” (Merck Sharp & Dohme Corp., priority 2015, dated 2018).
Read-outs that look alike come from different tables or passages of the source.

Target: T1, human PDE2A1 (Homo sapiens, UniProt O00408)
T1 construct: GST; purchased BPS Bioscience (San Diego, Calif.) 60020; host or cells: insect cells
Experiment: IMAP FP PDE assay, human PDE2A1
Type: biochemical
In short: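 FP (IMAP) read after 60 min room-temperature reaction of insect-cell GST-human PDE2A1 with 50 nM FAM-cAMP plus 1000 nM cGMP (pH 7.2 Tris, Mg2+, DTT). Compounds titrated 3-fold over ten points. Apparent Ki derived assuming KM of 10,000 nM; enzyme at 20% substrate turnover.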

[1] = Lab A, read-out: Human PDE2 Ki (nM) Lab A
[2] = Lab B, read-out: Human PDE2 Ki (nM) Lab B

T1 sequence (O00408 1-920 isoform O00408-2): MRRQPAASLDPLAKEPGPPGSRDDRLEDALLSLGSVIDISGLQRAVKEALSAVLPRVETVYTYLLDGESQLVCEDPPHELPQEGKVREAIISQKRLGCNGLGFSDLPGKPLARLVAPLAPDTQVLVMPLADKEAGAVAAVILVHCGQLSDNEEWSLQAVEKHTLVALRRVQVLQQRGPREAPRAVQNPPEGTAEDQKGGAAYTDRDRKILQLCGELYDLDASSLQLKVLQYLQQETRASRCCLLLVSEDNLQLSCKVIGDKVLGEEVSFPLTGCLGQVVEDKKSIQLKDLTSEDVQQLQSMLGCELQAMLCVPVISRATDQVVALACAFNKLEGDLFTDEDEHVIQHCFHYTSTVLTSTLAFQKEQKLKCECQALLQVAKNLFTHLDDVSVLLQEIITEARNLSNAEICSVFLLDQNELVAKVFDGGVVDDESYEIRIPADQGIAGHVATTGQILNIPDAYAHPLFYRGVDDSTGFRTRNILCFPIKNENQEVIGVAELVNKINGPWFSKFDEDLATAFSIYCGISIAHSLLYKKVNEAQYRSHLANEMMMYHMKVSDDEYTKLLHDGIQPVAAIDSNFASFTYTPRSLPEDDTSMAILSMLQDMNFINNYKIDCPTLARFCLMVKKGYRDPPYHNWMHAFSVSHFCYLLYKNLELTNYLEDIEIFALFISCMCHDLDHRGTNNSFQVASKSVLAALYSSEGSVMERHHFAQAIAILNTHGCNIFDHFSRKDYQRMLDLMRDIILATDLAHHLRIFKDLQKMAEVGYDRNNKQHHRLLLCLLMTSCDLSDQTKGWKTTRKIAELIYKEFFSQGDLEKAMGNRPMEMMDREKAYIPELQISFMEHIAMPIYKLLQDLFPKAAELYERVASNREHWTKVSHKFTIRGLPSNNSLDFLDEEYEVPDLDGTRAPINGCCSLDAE

Cc1nc2c(c(CO)nn2C(C)(C)c2ccc(C(F)(F)F)cc2)c(=O)[nH]1 [Example 9, 3-(Hydroxymethyl)-6-methyl-1-{1-methyl-1-[4-(trifluoromethyl)phenyl]ethyl}-1,5-dihydro-4H-pyrazolo[3,4-d]pyrimidin-4-one]
Ki [1]: 27 nM | Ki [2]: 60 nM

Cc1nc2c(c(CO)nn2C(C)c2ccc(C(F)(F)F)c(F)c2)c(=O)[nH]1 (stereo not drawn) [Example 1, 1-(1-(3-Fluoro-4-(trifluoromethyl)phenyl)ethyl)-3-(hydroxymethyl)-6-methyl-1H-pyrazolo[3,4-d]pyrimidin-4(5H)-one]
Ki [1]: 1.8 nM | Ki [2]: 5.3 nM

Cc1nn(C(C)c2ccc(C(F)(F)F)cc2)c2nc(-c3cnn(C)c3)[nH]c(=O)c12 (stereo not drawn) [Example 53, 3-Methyl-6-(1-methyl-1H-pyrazol-4-yl)-1-{1-[4-(trifluoromethyl)phenyl]ethyl}-1,5-dihydro-4H-pyrazolo[3,4-d]pyrimidin-4-one]
Ki [1]: 17 nM

CCOCCc1nc2c(c(C)nn2C(C)c2ccc(C(F)(F)F)cc2)c(=O)[nH]1 (stereo not drawn) [Example 35, 6-(2-Ethoxyethyl)-3-methyl-1-(1-(4-(trifluoromethyl)phenyl)ethyl)-1H-pyrazolo[3,4-d]pyrimidin-4(5H)-one]
Ki [1]: 105 nM

Cc1nn(C(C)c2ccc(C(F)(F)F)cc2)c2nc(-c3cnc4ccccc4n3)[nH]c(=O)c12 (stereo not drawn) [Example 50, 3-Methyl-6-quinoxalin-2-yl-1-{1-[4-(trifluoromethyl)phenyl]ethyl}-1,5-dihydro-4H-pyrazolo[3,4-d]pyrimidin-4-one]
Ki [1]: 47 nM

COc1ccc(Cc2nc3c(c(C(F)F)nn3C(C)c3ccc(C(F)(F)F)cc3)c(=O)[nH]2)cc1OC (single isomer, unassigned) [Example 196]
Ki [2]: 61 nM

Cc1nn(C(C)c2ccc(C(F)(F)F)cc2)c2nc(C3CCC3)[nH]c(=O)c12 (stereo not drawn) [Example 39, 6-Cyclobutyl-3-methyl-1-{1-[4-(trifluoromethyl)phenyl]ethyl}-1,5-dihydro-4H-pyrazolo[3,4-d]pyrimidin-4-one]
Ki [1]: 84 nM

Cc1nc2c(c(CF)nn2C(C)c2ccc(CC(F)(F)F)cc2)c(=O)[nH]1 (single isomer, unassigned) [Example 211, (S)- or (R)-3-(Fluoromethyl)-6-methyl-1-(1-(4-(2,2,2-trifluoroethyl)phenyl)ethyl)-1H-pyrazolo[3,4-d]pyrimidin-4(5H)-one]
Ki [2]: 0.65 nM

Cc1nc2c(c(C(F)F)nn2C(c2ccc(OC(F)(F)F)c(F)c2)C2CC2)c(=O)[nH]1 (stereo not drawn) [Example 193, 1-(Cyclopropyl(3-fluoro-4-(trifluoromethoxy)phenyl)methyl)-3-(difluoromethyl)-6-methyl-1H-pyrazolo[3,4-d]pyrimidin-4(5H)-one]
Ki [2]: 1.8 nM

Cc1nc2c(c(C(F)F)nn2C(C)c2ccc(C(F)(F)F)cc2)c(=O)[nH]1 (single isomer, unassigned) [Example 176]
Ki [2]: 1.3 nM

Cc1nc2c(c(CO)nn2C(c2ccc(C(F)(F)F)cc2)C2CC2)c(=O)[nH]1 (stereo not drawn) [Example 28, 1-(Cyclopropyl(4-(trifluoromethyl)phenyl)methyl)-3-(hydroxymethyl)-6-methyl-1H-pyrazolo[3,4-d]pyrimidin-4(5H)-one]
Ki [2]: 1.6 nM

Cc1nc2c(c(CF)nn2C(C)c2ccc(OC(F)(F)F)c(F)c2)c(=O)[nH]1 (single isomer, unassigned) [Example 217, (S)- or (R)-1-(1-(3-Fluoro-4-(trifluoromethoxy)phenyl)ethyl)-3-(fluoromethyl)-6-methyl-1H-pyrazolo[3,4-d]pyrimidin-4(5H)-one]
Ki [2]: 0.7 nM

Cc1nc2c(c(CO)nn2C(c2ccc(OC(F)(F)F)c(F)c2)C(C)C)c(=O)[nH]1 (single isomer, unassigned) [Example 127, (S)- or (R)-1-(1-(3-Fluoro-4-(trifluoromethoxy)phenyl)-2-methylpropyl)-3-(hydroxymethyl)-6-methyl-1H-pyrazolo[3,4-d]pyrimidin-4(5H)-one]
Ki [2]: 0.98 nM
